According to article PMC7961763, “Semi-Synthesis of Harringtonolide Derivatives and Their Antiproliferative Activity” (Molecules, 2021):
“Also recorded” adds a separate entry of the source. Like-named read-outs stand apart in the source and are kept apart here.

Tests used:
[1] = tested on: HCT-116 (human colon cancer cell line); assay: MTT assay, cytotoxicity against HCT-116; assay type: cell-based; conditions: read-out: IC50 HCT-116
Protocol: (§1) All the synthesized derivatives of HO were tested for their antiproliferative activity against four human cancer cell lines, including the HCT-116, A375, A-549, and Huh-7 cell lines, using the MTT assay. Cisplatin was used as a positive control, while lead compound HO (1) was also included in the study for comparison.
(§2) HCT-116 (Human colon cancer cell line), A375 (human melanoma cancer cell line), A-549 (human lung adenocarcinoma cell line), Huh-7 (human hepatoma cancer cell line), and L-02 (normal hepatic cell line) were purchased from the Cell Bank of Shanghai Institute of Biochemistry and Cell Biology, Chinese Academy of Sciences (Shanghai, China). The cells were cultured in Dulbecco’s modified Eagle medium (DMEM; NY, USA), which were all supplemented with 10% fetal bovine serum (FBS; NY, USA) at 37 °C with 5% CO2.
(§3) The cytotoxic activity was evaluated using the MTT assay. Briefly, cells were seeded in 96-well plates at a density of 5 × 10^3 cells/well in 100 μL of DMEM medium at 37 °C for 24 h. Stock solutions of test compounds were prepared in DMSO at concentration of 50 mM, and twofold serial dilution with a culture medium was performed to obtain appropriate concentrations right before the assay. After that, the cells were incubated with synthetic derivatives or cisplatin as a positive control at the various concentrations (0.78125-50 μM) for 48 h. Then, 20 μL of 3-(4,5-Dimethylthiazol-2-yl)-2,5-diphenyltetrazolium bromide (MTT, Aladdin, Shanghai, China) solution (5 mg/mL in PBS) was added, and then the cells were incubated at 37 °C for an additional 4 h. The supernatant was removed, and 150 μL of dimethyl sulfoxide was added to dissolve the MTT formazan. The optical density (OD) was measured on a microplate reader (SpectraMax Plus 384, Molecular Devices, Sunnyvale, CA, USA) at a wavelength of 570 nm. The cytotoxic activity was expressed as the IC50 values. The above tests were repeated three times in parallel. Vehicle DMSO (0.1%) was used as a negative control.

[2] = tested on: A375 (human melanoma cancer cell line); assay: MTT assay, cytotoxicity against A375; assay type: cell-based; conditions: read-out: IC50 A375
Protocol: as §1, §2, §3

[3] = tested on: A-549 (human lung adenocarcinoma cell line); assay: MTT assay, cytotoxicity against A549; assay type: cell-based; conditions: read-out: IC50 A549
Protocol: as §1, §2, §3

[4] = tested on: Huh-7 (human hepatoma cancer cell line); assay: MTT assay, cytotoxicity against Huh-7; assay type: cell-based; conditions: read-out: IC50 Huh-7
Protocol: as §1, §2, §3

[5] = tested on: HCT-116, A375, A549, and Huh-7 cells; assay: MTT assay, statements for the whole panel of tested cancer cells; assay type: cell-based, human; conditions: for cytotoxic activities against three other cancer cell lines (result in words): cell lines other than A549; for IC50: Homo sapiens, all tested cancer cells (HCT-116, A375, A549, Huh-7), read-out: IC50 against tested cells; for cytotoxic activities against four tested cancer cells (result in words): HCT-116, A375, A549, Huh-7, tested up to 50 μM
Protocol: as §1, §2, §3

[6] = Homo sapiens, HCT-116, 48 h, MTT, 48 h, HCT-116 cells
[7] = Homo sapiens, A-375, 48 h, MTT, 48 h, A375 cells
[8] = Homo sapiens, A549, 48 h, MTT, 48 h, A549 cells
[9] = Homo sapiens, Huh-7, 48 h, MTT, 48 h, Huh-7 cells

SMILES | IC50 [1, 6] [µM] | IC50 [2, 7] [µM] | IC50 [3, 8] [µM] | IC50 [4, 9] [µM] | cytotoxic activities against four tested cancer cells (result in words) [5] | also measured
Cc1cc(=O)cc2c3c1C1OC4C5OC(=O)C(CC2OC(=O)c2ccco2)(C4C)C3C15 (centres unmarked) [Compound 11c] | 11 ± 0.34 | 16.4 ± 1.92 | 23.2 ± 0.67 | > 50 | – | cytotoxic activities against three other cancer cell lines (result in words) [5]: weak cytotoxic activities
N.N.[Cl][Pt][Cl] [Cisplatin, reference compound] | – | – | – | – | – | IC50 ([1]; MTT, 48 h, HCT-116 cells): 4.48 ± 0.18 µM; IC50 ([2]; MTT, 48 h, A375 cells): 4.04 ± 0.23 µM; IC50 ([3]; MTT, 48 h, A549 cells): 8.53 ± 0.98 µM; IC50 ([4]; MTT, 48 h, Huh-7 cells): 15.04 ± 0.15 µM
Cc1cc(=O)cc2c3c1C1OC4C5OC(=O)C(CC2=O)(C4C)C3C15 [Compound 13, (3R,4aR,10aS,11S)-5,11-dimethyl-2a,3,4a,10a1-tetrahydro-1H-2,4-dioxa-3,10a-methanocyclohepta[bc]cyclopenta[jk]acenaphthylene-1,7,9(2a1H,10H)-trione] | > 50 | > 50 | > 50 | > 50 | – | IC50 [5]: > 50 µM
Cc1cc(=O)cc2c3c1C1OC4C5OC(O)C(CC2)(C4C)C3C15 [Compound 4, (1R,3R,4aR,10aS,11S)-1-hydroxy-5,11-dimethyl-2a,3,4a,9,10,10a1-hexahydro-1H-2,4-dioxa-3,10a-methanocyclohepta[bc]cyclopenta[jk]acenaphthylen-7(2a1H)-one] | > 50 | > 50 | > 50 | > 50 | losing of cytotoxic activities | –
Cc1cc(=O)cc2c3c1C1OC4C5OC(=O)C(CC2OC(=O)c2ccccn2)(C4C)C3C15 [Compound 11e, (3R,4aR,9S,10aS,11S)-5,11-dimethyl-1,7-dioxo-2a,2a1,3,4a,7,9,10,10a1-octahydro-1H-2,4-dioxa-3,10a-methanocyclohepta[bc]cyclopenta[jk]acenaphthylen-9-yl picolinate] | 5.47 ± 0.27 | 7.08 ± 0.42 | 18 ± 4.18 | > 50 | – | cytotoxic activities against three other cancer cell lines (result in words) [5]: weak cytotoxic activities
CC(=O)Nc1c2c3c(c(C)cc1=O)C1OC4C5OC(=O)C(CC2)(C4C)C3C15 [Compound 3, N-((3R,4aR,10aS,11S)-5,11-dimethyl-1,7-dioxo-2a,2a1,3,4a,7,9,10,10a1-octahydro-1H-2,4-dioxa-3,10a-methanocyclohepta[bc]cyclopenta[jk]acenaphthylen-8-yl) acetamide] | > 50 | > 50 | > 50 | > 50 | losing of cytotoxic activities | –
Cc1cc(=O)cc2c3c1C1OC4C5OC(=O)C(CC2O)(C4C)C3C15 [Compound 12, (3R,4aR,9R,10aS,11S)-9-hydroxy-5,11-dimethyl-2a,3,4a,9,10,10a1-hexahydro-1H-2,4-dioxa-3,10a-methanocyclohepta[bc]cyclopenta[jk]acenaphthylene-1,7(2a1H)-dione] | – | – | – | – | – | IC50 ([1]; MTT, 48 h, HCT-116 cells): 31.9 ± 0.69 µM; IC50 ([2]; MTT, 48 h, A375 cells): 40.4 ± 7.58 µM; IC50 ([3]; MTT, 48 h, A549 cells): 34.7 ± 1.94 µM; IC50 ([4]; MTT, 48 h, Huh-7 cells): > 50 µM
Cc1cc(=O)cc2c3c1C1OC4C5OC(=O)C(CC2OC(=O)CCC(=O)O)(C4C)C3C15 [Compound 11b, 4-(((3R,4aR,9S,10aS,11S)-5,11-dimethyl-1,7-dioxo-2a,2a1,3,4a,7,9,10,10a1-octahydro-1H-2,4-dioxa-3,10a-methanocyclohepta[bc]cyclopenta[jk]acenaphthylen-9-yl)oxy)-4-oxobutanoic acid] | > 50 | > 50 | > 50 | > 50 | – | IC50 [5]: > 50 µM
Cc1cc(=O)cc2c3c1C1OC4C5OC(=O)C(CC2Br)(C4C)C3C15 [Compound 8, (3R,4aR,9R,10aS,11S)-9-bromo-5,11-dimethyl-2a,3,4a,9,10,10a1-hexahydro-1H-2,4-dioxa-3,10a-methanocyclohepta[bc]cyclopenta[jk]acenaphthylene-1,7(2a1H)-dione] | 2.19 ± 0.23 | 3.4 ± 0.22 | 43.4 ± 1.08 | 30.8 ± 0.6 | – | –
Cc1cc(=O)c(N)c2c3c1C1OC4C5OC(=O)C(CC2)(C4C)C3C15 [Compound 2, (3R,4aR,10aS,11S)-8-amino-5,11-dimethyl-2a,3,4a,9,10,10a1-hexahydro-1H-2,4-dioxa-3,10a-methanocyclohepta[bc]cyclopenta[jk]acenaphthylene-1,7(2a1H)-dione] | > 50 | > 50 | > 50 | > 50 | losing of cytotoxic activities | –
COc1c2c3c(c(C)cc1=O)C1OC4C5OC(=O)C(CC2)(C4C)C3C15 [Compound 9, (3R,4aR,10aS,11S)-8-methoxy-5,11-dimethyl-2a,3,4a,9,10,10a1-hexahydro-1H-2,4-dioxa-3,10a-methanocyclohepta[bc]cyclopenta[jk]acenaphthylene-1,7(2a1H)-dione] | – | – | – | – | inactive; also recorded: losing of cytotoxic activities | IC50 ([1]; Homo sapiens, HCT-116, 48 h): > 50 µM; IC50 ([2]; Homo sapiens, A-375, 48 h): > 50 µM; IC50 ([3]; Homo sapiens, A549, 48 h): > 50 µM; IC50 ([4]; Homo sapiens, Huh-7, 48 h): > 50 µM
CC(=O)OC1OC2C3OC4c5c(C)cc(=O)cc6c5C(C42)C1(CC6)C3C [Compound 5, (1S,3R,4aR,10aS,11S)-5,11-dimethyl-7-oxo-2a,2a1,3,4a,7,9,10,10a1-octahydro-1H-2,4-dioxa-3,10a-methanocyclohepta[bc]cyclopenta[jk]acenaphthylen-1-yl acetate] | > 50 | > 50 | > 50 | > 50 | losing of cytotoxic activities | –
Cc1cc(=O)cc2c3c1C1OC4C5OC(=O)C(CC2OC(=O)c2nc(C)c(C)nc2C)(C4C)C3C15 [Compound 11f, (3R,4aR,9S,10aS,11S)-5,11-dimethyl-1,7-dioxo-2a,2a1,3,4a,7,9,10,10a1-octahydro-1H-2,4-dioxa-3,10a-methanocyclohepta[bc]cyclopenta[jk]acenaphthylen-9-yl 3,5,6-trimethylpyrazine-2-carboxylate] | 10.8 ± 0.42 | 18.6 ± 2.23 | 25.9 ± 0.68 | > 50 | – | cytotoxic activities against three other cancer cell lines (result in words) [5]: weak cytotoxic activities
Cc1cc(=O)cc2c3c1C1OC4C5OC(=O)C(CC2OC(=O)c2ccccc2)(C4C)C3C15 [Compound 11d, (3R,4aR,9S,10aS,11S)-5,11-dimethyl-1,7-dioxo-2a,2a1,3,4a,7,9,10,10a1-octahydro-1H-2,4-dioxa-3,10a-methanocyclohepta[bc]cyclopenta[jk]acenaphthylen-9-yl benzoate] | > 50 | > 50 | > 50 | > 50 | – | IC50 [5]: > 50 µM
Cc1ccc2c3c1C1OC4C5OC(=O)C(CC2=O)(C4C)C3C15 [Compound 7, (3R,4aR,9aS,10S)-5,10-dimethyl-2a,2a1,4a,9a1-tetrahydro-1H,3H-2,4-dioxa-3,9a-methanopentaleno [4,3,2,1-cdef]phenanthrene-1,8(9H)-dione] | > 50 | > 50 | > 50 | > 50 | inactive; also recorded: losing of cytotoxic activities | –
CC(=O)OC1CC23C(=O)OC4C(OC5c6c(C)cc(=O)cc1c6C2C54)C3C [Compound 11a, (3R,4aR,9S,10aS,11S)-5,11-dimethyl-1,7-dioxo-2a,2a1,3,4a,7,9,10,10a1-octahydro-1H-2,4-dioxa-3,10a-methanocyclohepta[bc]cyclopenta[jk]acenaphthylen-9-yl acetate] | 5.95 ± 0.45 | 30.1 ± 1.58 | 27.5 ± 0.89 | > 50 | – | cytotoxic activities against three other cancer cell lines (result in words) [5]: weak cytotoxic activities
